Assay results: US20100267561A1, “HERBICIDAL PYRIDAZINONE DERIVATIVES” (priority 2007, published 2010)

Experiments:
Type in all cases: in vivo
[1] = system: large crabgrass (Digitaria sanguinalis); assay: Test B pre-/postemergence plant response; conditions: for Crabgrass, Large plant response rating: 8 g ai/ha
In short: (§1)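 Visual scoring from 0 (no effect) to 100 (complete control) against untreated controls was done 13 to 15 days after greenhouse treatment. Chemicals were formulated in a surfactant-containing non-phytotoxic solvent and applied to soil preemergence or to 1- to 4-leaf (2-18 cm) plants postemergence.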

[2] = system: giant foxtail (Setaria faberii); assay: Test B pre-/postemergence plant response; conditions: for Foxtail, Giant plant response rating: 8 g ai/ha
In short: as §1

[3] = system: eastern black (E.B.) nightshade (Solanum ptycanthum); assay: Test B pre-/postemergence plant response; conditions: Preemergence
In short: as §1

[4] = system: green foxtail (Setaria viridis); assay: Test B pre-/postemergence plant response; conditions: for Foxtail, Green plant response rating: 8 g ai/ha
In short: as §1

[5] = system: pigweed (Amaranthus retroflexus); assay: Test B pre-/postemergence plant response; conditions: for Pigweed plant response rating: 8 g ai/ha
In short: as §1

[6] = system: woolly cupgrass (Eriochloa villosa); assay: Test B pre-/postemergence plant response; conditions: for Cupgrass, Woolly plant response rating: 8 g ai/ha
In short: as §1

corn (Zea mays) = assay: Test B pre-/postemergence plant response; conditions: for Corn plant response rating: 8 g ai/ha
In short: as §1

[7] = system: Russian thistle (Salsola iberica); assay: Test B pre-/postemergence plant response; conditions: Preemergence
In short: as §1

[8] = system: downy bromegrass (Bromus tectorum); assay: Test B pre-/postemergence plant response; conditions: for Bromegrass, Downy plant response rating: 8 g ai/ha
In short: as §1

wild oat (Avena fatua) = assay: Test B pre-/postemergence plant response; conditions: for Oat, Wild plant response rating: 8 g ai/ha
In short: as §1

[9] = system: barnyardgrass (Echinochloa crus-galli); assay: Test B flooded paddy test plant response
In short: (§2)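 Paddy-water application to 2-leaf plants in pots held under 3 cm of flooding; response is a 0–100 visual control rating against controls after 13 to 15 days, and a dash marks a missing result.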

rice (Oryza sativa) = assay: Test B flooded paddy test plant response
In short: as §2

[10] = system: umbrella sedge (Cyperus difformis); assay: Test B flooded paddy test plant response
In short: as §2

[11] = system: ducksalad (Heteranthera limosa); assay: Test B flooded paddy test plant response
In short: as §2

[12] = Postemergence, 16 g ai/ha, scale 0 to 100
[13] = Postemergence, 31 g ai/ha, scale 0 to 100, 0 no effect, 100 complete control
[14] = Postemergence, 62 g ai/ha, scale 0 to 100, 0 no effect, 100 complete control
[15] = Preemergence, 16 g ai/ha, scale 0 to 100 (0 no effect, 100 complete control)
[16] = Preemergence, 31 g ai/ha, 0 to 100 scale, 0 no effect, 100 complete control
[17] = Preemergence, 62 g ai/ha, scale 0 to 100
[18] = 16 g ai/ha, scale 0 to 100 (0 no effect, 100 complete control)
[19] = Flood (flooded paddy test), 62 g ai/ha, scale 0 to 100, 0 no effect, 100 complete control
[20] = Flood (flooded paddy test), 125 g ai/ha, scale 0 to 100, 0 no effect, 100 complete control
[21] = Flood (flooded paddy test), 250 g ai/ha, scale 0 to 100, 0 no effect, 100 complete control
[22] = Flood, 31 g ai/ha, scale 0 to 100

Cc1cc(-c2ccc(Cl)cc2)nn1-c1c(OS(C)(=O)=O)cnn(C)c1=O [Compound 36]
Crabgrass, Large plant response rating ([1]; postemergence, 0-100 scale): 50 | Plant response rating, Crabgrass, Large [1, 12]: 65 | Plant response rating, Crabgrass, Large [1, 13]: 90 | Plant response rating, Crabgrass, Large [1, 14]: 100 | Plant response rating, Crabgrass, Large [1, 15]: 98 | Plant response rating, Crabgrass, Large [1, 16]: 100 | Plant response rating, Crabgrass, Large [1, 17]: 100 | Crabgrass, Large plant response rating ([1]; Preemergence, scale 0 to 100): 98 | Foxtail, Giant plant response rating ([2]; postemergence, 0-100 scale): 0 | Plant response rating, Foxtail, Giant [2, 12]: 35 | Plant response rating, Foxtail, Giant [2, 13]: 60 | Plant response rating, Foxtail, Giant [2, 14]: 60 | Plant response rating, Foxtail, Giant [2, 15]: 100 | Plant response rating, Foxtail, Giant [2, 16]: 100 | Plant response rating, Foxtail, Giant [2, 17]: 100 | Foxtail, Giant plant response rating ([2]; Preemergence, scale 0 to 100): 100 | Plant response rating, Nightshade, E. B. [3, 18]: 0 | Plant response rating, Nightshade, E. B. ([3]; 31 g ai/ha, 0 to 100 scale, 0 no effect, 100 complete control): 0 | Plant response rating, Nightshade, E. B. ([3]; 62 g ai/ha, scale 0 to 100): 0 | Nightshade, E. B. plant response rating ([3]; 8 g ai/ha, scale 0 to 100): 0 | Foxtail, Green plant response rating ([4]; postemergence, 0-100 scale): 0 | Plant response rating, Foxtail, Green [4, 12]: 50 | Plant response rating, Foxtail, Green [4, 13]: 60 | Plant response rating, Foxtail, Green [4, 14]: 70 | Plant response rating, Foxtail, Green [4, 15]: 100 | Plant response rating, Foxtail, Green [4, 16]: 100 | Plant response rating, Foxtail, Green [4, 17]: 100 | Foxtail, Green plant response rating ([4]; Preemergence, scale 0 to 100): 50 | Pigweed plant response rating ([5]; postemergence, 0-100 scale): 0 | Plant response rating, Pigweed [5, 12]: 0 | Plant response rating, Pigweed [5, 13]: 0 | Plant response rating, Pigweed [5, 14]: 0 | Plant response rating, Pigweed [5, 15]: 0 | Plant response rating, Pigweed [5, 16]: 0 | Plant response rating, Pigweed [5, 17]: 0 | Pigweed plant response rating ([5]; Preemergence, scale 0 to 100): 0 | Cupgrass, Woolly plant response rating ([6]; postemergence, 0-100 scale): 85 | Plant response rating, Cupgrass, Woolly [6, 12]: 90 | Plant response rating, Cupgrass, Woolly [6, 13]: 95 | Plant response rating, Cupgrass, Woolly [6, 14]: 95 | Plant response rating, Cupgrass, Woolly [6, 15]: 85 | Plant response rating, Cupgrass, Woolly [6, 16]: 98 | Plant response rating, Cupgrass, Woolly [6, 17]: 100 | Cupgrass, Woolly plant response rating ([6]; Preemergence, scale 0 to 100): 85 | Corn plant response rating (corn (Zea mays); postemergence, 0-100 scale): 10 | Plant response rating, Corn (corn (Zea mays); [12]): 15 | Plant response rating, Corn (corn (Zea mays); [13]): 15 | Plant response rating, Corn (corn (Zea mays); [14]): 40 | Plant response rating, Corn (corn (Zea mays); [15]): 55 | Plant response rating, Corn (corn (Zea mays); [16]): 70 | Plant response rating, Corn (corn (Zea mays); [17]): 95 | Corn plant response rating (corn (Zea mays); Preemergence, scale 0 to 100): 40 | Plant response rating, Russian Thistle [7, 18]: 0 | Plant response rating, Russian Thistle ([7]; 62 g ai/ha, scale 0 to 100): 80 | Russian Thistle plant response rating ([7]; 8 g ai/ha, scale 0 to 100): 0 | Bromegrass, Downy plant response rating ([8]; postemergence, 0-100 scale): 0 | Plant response rating, Bromegrass, Downy [8, 12]: 5 | Plant response rating, Bromegrass, Downy [8, 13]: 40 | Plant response rating, Bromegrass, Downy [8, 14]: 50 | Plant response rating, Bromegrass, Downy [8, 15]: 50 | Plant response rating, Bromegrass, Downy [8, 16]: 50 | Plant response rating, Bromegrass, Downy [8, 17]: 90 | Bromegrass, Downy plant response rating ([8]; Preemergence, scale 0 to 100): 0 | Oat, Wild plant response rating (wild oat (Avena fatua); postemergence, 0-100 scale): 0 | Plant response rating, Oat, Wild (wild oat (Avena fatua); [12]): 50 | Plant response rating, Oat, Wild (wild oat (Avena fatua); [13]): 60 | Plant response rating, Oat, Wild (wild oat (Avena fatua); [14]): 90 | Plant response rating, Oat, Wild (wild oat (Avena fatua); [15]): 50 | Plant response rating, Oat, Wild (wild oat (Avena fatua); [16]): 90 | Plant response rating, Oat, Wild (wild oat (Avena fatua); [17]): 95 | Oat, Wild plant response rating (wild oat (Avena fatua); Preemergence, scale 0 to 100): 0 | Plant response rating, Barnyardgrass [9, 19]: 0 | Plant response rating, Barnyardgrass [9, 20]: 0 | Plant response rating, Barnyardgrass [9, 21]: 0 | Plant response rating, Barnyardgrass [9, 22]: 0 | Plant response rating, Rice (rice (Oryza sativa); [19]): 0 | Plant response rating, Rice (rice (Oryza sativa); [20]): 0 | Plant response rating, Rice (rice (Oryza sativa); [21]): 0 | Plant response rating, Rice (rice (Oryza sativa); [22]): 0 | Plant response rating, Sedge, Umbrella [10, 19]: 0 | Plant response rating, Sedge, Umbrella [10, 20]: 0 | Plant response rating, Sedge, Umbrella [10, 21]: 0 | Plant response rating, Sedge, Umbrella [10, 22]: 0 | Plant response rating, Ducksalad [11, 19]: 0 | Plant response rating, Ducksalad [11, 20]: 0 | Plant response rating, Ducksalad [11, 21]: 0 | Plant response rating, Ducksalad [11, 22]: 0
